Experimental data reported in patent US20040247607A1, “Use of surfactants to stabilize oocysts” (priority 1999, published 2004).

Tested on: oocysts
Assay: Evaluation of naturally derived surfactants for decreasing and preventing oocyst aggregation
Excerpt: In one aspect, the present invention provides a method for evaluating the ability of a surfactant to prevent aggregation of oocysts, sporocysts, and/or sporozoites. The method comprises adding a surfactant to a composition that comprises oocysts, sporocysts, sporozoites, or any combination thereof, at a concentration sufficient to prevent aggregation of the oocysts, sporocysts, and/or sporozoites (i.e. a test concentration). The resulting composition is then agitated, for example, by shaking manually or via an automatic shaker. As previously described, agitating the composition exposes the oocysts, sporocysts, and/or sporozoites to air or other gases, and promotes aggregation. After agitation, the composition is evaluated to determine whether any aggregation has occurred. Preferably, evaluation occurs by visually observing the composition for the presence of aggregated oocysts, sporocysts, and/or sporozoites. […]
In another aspect, the present invention provides a method for evaluating the ability of a surfactant to reduce oocyst, sporocyst, and/or sporozoite aggregation. […] Upon addition of the surfactant, the resulting composition is agitated, as previously described, and then evaluated to determine whether the aggregation has been reduced or eliminated entirely by addition of the surfactant. […]

Substance | decreasing and preventing aggregation of oocysts
casein | effective
serum albumin | effective
